# In ChEMBL document CHEMBL5154749 (Eur J Med Chem, 2022):
# Calls of active or inactive are those of the source. No cut-off for these calls is given here.
# What was measured:
# [1] = test system: HT-29; test: Induction of apoptosis in human HT-29 cells assessed as early apoptotic cells at 1 uM measured after 48 hrs in presence of AZD1390 by Annexin V-FITC/Propidium iodide staining based flow cytometry analysis (reference value: 3.81%); type: functional
# [2] = test system: LoVo; test: Induction of apoptosis in human LoVo cells deficient in ATM assessed as viable cells at 3 uM measured after 24 hrs by Annexin V-FITC/Propidium iodide staining based flow cytometry analysis (reference value: 91.64%); type: functional; settings: read-out: Activity
# [3] = Oral bioavailability in Sprague-Dawley rat at 10 mg/kg measured at 0.083 to 24 hrs by LC-MS/MS method; type: ADME, organism-based; settings: in vivo, time 0.083-24 hrs
# [4] = test system: OVCAR-3; test: Antiproliferative activity against ATM-deficient human OVCAR-3 cells assessed as reduction in cell viability incubated for 72 hrs by MTT assay; type: functional, cell-based; settings: dose 0.001-100 µM, DDE = dose-dependent effect
# [5] = Toxicity in NOD/SCID mouse xenografted with human LoVo cells assessed as damage in heart at 50 to 100 mg/kg, po administered bid for 30 days measured after 2 hrs post last dose by H and E staining method; type: organism-based; settings: in vivo, 720 h, dose 50-100 mg/kg, time 30 day
# [6] = target: Serine-protein kinase ATM (Homo sapiens) (UniProt Q13315); test: Activation of ATM signaling in human HT-29 cells proficient in ATM at 1 uM measured after 3 days by immunofluorescence assay; type: cell-based; settings: filed as activator, time 3.0 day
# [7] = test system: LoVo; test: Inhibition of colony formation in human LoVo cells assessed as inhibition of cell proliferation incubated for 24 hrs followed by culture medium replenishment with drug-free medium for every 72 hrs and measured after 14 days by crystal violet staining method; type: functional, cell-based; settings: dose 0.03-3 µM, DDE = dose-dependent effect
# [8] = test system: HT-29; test: Induction of apoptosis in human HT-29 cells assessed as viable cells at 1 uM measured after 48 hrs by Annexin V-FITC/Propidium iodide staining based flow cytometry analysis (reference value: 97.01%); type: functional; settings: read-out: Activity
# [9] = Toxicity in NOD/SCID mouse xenografted with human LoVo cells assessed as damage in spleen at 50 to 100 mg/kg, po administered bid for 30 days measured after 2 hrs post last dose by H and E staining method; type: organism-based; settings: in vivo, 720 h, dose 50-100 mg/kg, time 30 day
# [10] = target: T1, Serine/threonine-protein kinase ATR (Homo sapiens, UniProt Q13535); test: Inhibition of ATR signalling in ATM-deficient human LoVo cells assessed as inhibition of Chk1 phosphorylation incubated for 1 hr followed by hydroxyurea addition measured after 4 hrs by Western blot analysis; type: cell-based; settings: dose <= 3.0 µM, time 5.0 hrs, DDE = dose-dependent effect
# Target sequence in this assay (Q13535 whole entry, looked up): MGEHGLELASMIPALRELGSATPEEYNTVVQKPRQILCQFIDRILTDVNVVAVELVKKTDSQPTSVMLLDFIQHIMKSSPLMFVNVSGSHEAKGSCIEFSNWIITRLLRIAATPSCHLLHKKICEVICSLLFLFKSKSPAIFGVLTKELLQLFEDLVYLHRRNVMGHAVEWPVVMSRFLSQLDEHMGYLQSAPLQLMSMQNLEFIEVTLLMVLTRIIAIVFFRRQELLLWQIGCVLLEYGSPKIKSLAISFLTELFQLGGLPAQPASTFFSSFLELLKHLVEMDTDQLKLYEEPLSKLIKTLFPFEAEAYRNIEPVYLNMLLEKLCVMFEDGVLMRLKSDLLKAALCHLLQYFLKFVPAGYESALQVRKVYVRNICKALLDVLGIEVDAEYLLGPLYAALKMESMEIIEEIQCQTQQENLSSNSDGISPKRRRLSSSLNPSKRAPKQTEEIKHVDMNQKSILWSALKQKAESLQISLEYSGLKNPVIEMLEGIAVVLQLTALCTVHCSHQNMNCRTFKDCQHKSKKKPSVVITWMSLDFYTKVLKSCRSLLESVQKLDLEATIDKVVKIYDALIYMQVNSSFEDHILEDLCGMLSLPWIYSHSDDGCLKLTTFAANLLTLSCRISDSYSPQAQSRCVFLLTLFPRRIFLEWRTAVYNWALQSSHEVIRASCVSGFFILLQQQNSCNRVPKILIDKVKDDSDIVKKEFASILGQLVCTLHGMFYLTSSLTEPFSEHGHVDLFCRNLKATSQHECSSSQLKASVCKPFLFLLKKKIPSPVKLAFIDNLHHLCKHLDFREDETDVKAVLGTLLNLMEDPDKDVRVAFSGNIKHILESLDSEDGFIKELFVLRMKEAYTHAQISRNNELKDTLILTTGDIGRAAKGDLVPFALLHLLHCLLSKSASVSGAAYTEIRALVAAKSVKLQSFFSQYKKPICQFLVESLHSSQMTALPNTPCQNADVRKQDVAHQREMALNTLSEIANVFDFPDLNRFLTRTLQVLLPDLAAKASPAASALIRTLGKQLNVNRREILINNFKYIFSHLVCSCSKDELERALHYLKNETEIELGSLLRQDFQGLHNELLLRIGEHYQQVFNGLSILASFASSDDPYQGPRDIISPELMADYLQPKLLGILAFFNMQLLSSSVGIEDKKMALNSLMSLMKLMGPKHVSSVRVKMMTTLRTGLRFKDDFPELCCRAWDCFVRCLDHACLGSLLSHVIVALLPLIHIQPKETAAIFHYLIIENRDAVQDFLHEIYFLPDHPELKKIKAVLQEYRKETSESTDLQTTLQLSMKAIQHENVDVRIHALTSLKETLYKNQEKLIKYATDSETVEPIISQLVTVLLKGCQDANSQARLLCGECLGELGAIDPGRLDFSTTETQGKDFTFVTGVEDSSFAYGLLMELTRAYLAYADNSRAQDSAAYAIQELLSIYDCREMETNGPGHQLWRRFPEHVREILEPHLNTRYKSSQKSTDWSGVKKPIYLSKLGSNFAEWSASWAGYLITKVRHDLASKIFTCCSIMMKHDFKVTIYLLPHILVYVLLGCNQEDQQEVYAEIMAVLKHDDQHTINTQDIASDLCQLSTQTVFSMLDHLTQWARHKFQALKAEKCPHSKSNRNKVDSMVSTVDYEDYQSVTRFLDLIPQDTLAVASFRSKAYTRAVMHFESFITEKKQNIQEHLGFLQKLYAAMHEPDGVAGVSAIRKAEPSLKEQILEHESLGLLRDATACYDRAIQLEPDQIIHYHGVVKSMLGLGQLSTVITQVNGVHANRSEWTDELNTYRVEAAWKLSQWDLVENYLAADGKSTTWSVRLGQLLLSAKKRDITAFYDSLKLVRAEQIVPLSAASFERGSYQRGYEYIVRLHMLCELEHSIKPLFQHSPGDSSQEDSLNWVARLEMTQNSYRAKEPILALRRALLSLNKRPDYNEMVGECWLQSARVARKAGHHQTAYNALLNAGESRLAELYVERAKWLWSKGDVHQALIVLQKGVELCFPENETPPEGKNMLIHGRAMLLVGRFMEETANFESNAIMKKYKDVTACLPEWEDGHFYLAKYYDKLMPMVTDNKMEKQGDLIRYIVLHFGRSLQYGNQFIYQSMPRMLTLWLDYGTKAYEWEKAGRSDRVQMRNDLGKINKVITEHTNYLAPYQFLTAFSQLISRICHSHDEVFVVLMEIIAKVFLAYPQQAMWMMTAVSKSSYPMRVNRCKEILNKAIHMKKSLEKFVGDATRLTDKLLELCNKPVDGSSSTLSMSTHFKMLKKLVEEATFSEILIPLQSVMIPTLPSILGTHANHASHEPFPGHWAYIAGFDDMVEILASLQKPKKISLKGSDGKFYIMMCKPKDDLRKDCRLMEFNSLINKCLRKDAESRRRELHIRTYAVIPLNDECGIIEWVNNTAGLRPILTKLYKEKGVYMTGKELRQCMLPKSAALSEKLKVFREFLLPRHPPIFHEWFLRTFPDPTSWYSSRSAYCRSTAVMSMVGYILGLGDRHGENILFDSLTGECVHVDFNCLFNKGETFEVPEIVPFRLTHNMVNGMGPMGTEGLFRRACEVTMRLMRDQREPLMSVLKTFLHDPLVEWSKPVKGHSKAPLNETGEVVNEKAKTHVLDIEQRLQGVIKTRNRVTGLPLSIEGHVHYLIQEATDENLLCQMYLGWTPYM
# [11] = test system: HT-29; test: Induction of apoptosis in human HT-29 cells assessed as early apoptotic cells at 3 uM measured after 48 hrs by Annexin V-FITC/Propidium iodide staining based flow cytometry analysis (reference value: 1.55%); type: functional
# [12] = test system: HT-29; test: Induction of apoptosis in human HT-29 cells assessed as viable cells at 3 uM measured after 48 hrs by Annexin V-FITC/Propidium iodide staining based flow cytometry analysis (reference value: 97.01%); type: functional; settings: read-out: Activity
# [13] = target: T1, Serine/threonine-protein kinase ATR; test: In vivo inhibition of ATR in human LoVo cells xenografted in NOD/SCID mouse assessed as inhibition of Chk1 phosphorylation at 50 to 100 mg/kg, po administered twice a day for 30 days by Western blot analysis; settings: dose 50-100 mg/kg, time 30.0 day
# Target sequence in this assay (Q13535 whole entry, looked up): as above
# [14] = test system: HT-29; test: Induction of apoptosis in human HT-29 cells assessed as necrotic cells at 0.3 uM measured after 48 hrs in presence of AZD1390 by Annexin V-FITC/Propidium iodide staining based flow cytometry analysis (reference value: 0.23%); type: functional
# [15] = test system: HT-29; test: Induction of apoptosis in human HT-29 cells assessed as late apoptotic cells at 3 uM measured after 48 hrs by Annexin V-FITC/Propidium iodide staining based flow cytometry analysis (reference value: 0.71%); type: functional
# [16] = test system: LoVo; test: Induction of apoptosis in human LoVo cells deficient in ATM assessed as viable cells at 0.3 uM measured after 24 hrs by Annexin V-FITC/Propidium iodide staining based flow cytometry analysis (reference value: 91.64%); type: functional; settings: read-out: Activity
# [17] = AUC (0 to infinity) in Sprague-Dawley rat at 5 mg/kg, iv measured at 0.083 to 24 hrs by LC-MS/MS method; type: ADME, organism-based; set-up: dose 5 mg/kg, time upper 24 hrs, time lower 0.083 hrs, route iv; settings: in vivo
# [18] = test system: HT-29; test: Antiproliferative activity against human HT-29 cells assessed as reduction in cell viability incubated for 72 hrs in presence of AZD1390 by MTT assay; type: functional, cell-based; settings: HT-29, 72 h
# [19] = test system: HT-29; test: Induction of apoptosis in human HT-29 cells assessed as viable cells at 3 uM measured after 48 hrs in presence of AZD1390 by Annexin V-FITC/Propidium iodide staining based flow cytometry analysis (reference value: 95.33%); type: functional; settings: read-out: Activity
# [20] = Tmax in Sprague-Dawley rat at 5 mg/kg, iv measured at 0.083 to 24 hrs by LC-MS/MS method; type: ADME, organism-based; settings: in vivo, time 0.083-24 hrs
# [21] = test system: LoVo; test: Antiproliferative activity against ATM-deficient human LoVo cells assessed as reduction in cell viability incubated for 72 hrs by MTT assay; type: functional, cell-based; settings: dose 0.001-100 µM, DDE = dose-dependent effect
# [22] = target: T1, Serine/threonine-protein kinase ATR; test: Inhibition of human recombinant full length ATR using GST-cMyc-p53 as substrate incubated for 40 mins in presence of ATP by HTRF assay
# Target sequence in this assay (Q13535 whole entry): as the sequence (Q13535 whole entry, looked up) above
# [23] = test system: HT-29; test: Induction of apoptosis in human HT-29 cells assessed as necrotic cells at 1 uM measured after 48 hrs by Annexin V-FITC/Propidium iodide staining based flow cytometry analysis (reference value: 0.73%); type: functional
# [24] = test system: HT-29; test: Induction of apoptosis in human HT-29 cells assessed as necrotic cells at 0.3 uM measured after 48 hrs by Annexin V-FITC/Propidium iodide staining based flow cytometry analysis (reference value: 0.73%); type: functional
# [25] = test system: LoVo; test: Induction of apoptosis in human LoVo cells deficient in ATM assessed as necrotic cells at 0.3 uM measured after 24 hrs by Annexin V-FITC/Propidium iodide staining based flow cytometry analysis (reference value: 0.84%); type: functional
# [26] = test system: LoVo; test: Antitumor activity against human LoVo cells xenografted in NOD/SCID mouse assessed as tumor growth inhibition at 100 mg/kg, po BID for 30 days measured every 2 to 3 days; type: functional; settings: 720 h, time 30 day, read-out: TGI
# [27] = test system: HT-29; test: Induction of apoptosis in human HT-29 cells assessed as necrotic cells at 3 uM measured after 48 hrs in presence of AZD1390 by Annexin V-FITC/Propidium iodide staining based flow cytometry analysis (reference value: 0.23%); type: functional
# [28] = test system: NCI-H23; test: Antiproliferative activity against ATM-deficient human NCI-H23 cells assessed as reduction in cell viability incubated for 72 hrs by MTT assay; type: functional, cell-based; settings: dose 0.001-100 µM, DDE = dose-dependent effect
# [29] = test system: HT-29; test: Induction of apoptosis in human HT-29 cells assessed as late apoptotic cells at 1 uM measured after 48 hrs by Annexin V-FITC/Propidium iodide staining based flow cytometry analysis (reference value: 0.71%); type: functional
# [30] = test system: LoVo; test: Induction of apoptosis in human LoVo cells deficient in ATM assessed as late apoptotic cells at 3 uM measured after 24 hrs by Annexin V-FITC/Propidium iodide staining based flow cytometry analysis (reference value: 3.32%); type: functional
compound,measurement,setting,value
C[C@@H]1COCCN1c1nc(-c2cccc3[nH]ccc23)nc2ccc(-c3ccnn3C)cc12,Activity,[1],7.45%
same,viability at 3 µM,[2],41.2%
same,bioavailability,[3],43.1%
same,Activity,[4],Dde
same,Activity,[5],Non-Toxic
same,Activity,[6],Active
same,inhibition,[7],Dde
same,viability at 1 µM,[8],94.7%
same,Activity,[9],Non-Toxic
same,inhibition,[10],Dde
same,Activity,[11],2.64%
same,viability at 3 µM,[12],93.1%
same,Activity,[13],Active
same,Activity,[14],3.91%
same,Activity,[15],2.52%
same,viability at 0.3 µM,[16],55.9%
same,AUC(0-inf),[17],3.15 µg·h/mL
same,IC50,[18],0.439 µM
same,viability at 3 µM,[19],58%
same,Tmax,[20],4.8 min
same,Activity,[21],Dde
same,IC50,[22],0.013 µM
same,Activity,[23],1.06%
same,Activity,[24],1.65%
same,Activity,[25],2.71%
same,inhibition in vivo at 100 mg/kg,[26],72.8%
same,Activity,[27],5.39%
same,Activity,[28],Dde
same,Activity,[29],1.92%
same,Activity,[30],28.73%
